# In ChEMBL document CHEMBL5214890 (Eur J Med Chem, 2021):
# Columns and labels:
# [1] = AUC (inifinity) in male Sprague-Dawley rat at 25 nmol/kg, sc administered as single dose and measured after 24 hrs by LC-MS/MS analysis; assay type: ADME, organism-based; design: dose 25 nmol/kg, time 24 hrs, route sc; settings: in vivo
# [2] = Toxicity in male […] assessed as decrease in hepatic lipid content at 40 nmol/kg, sc administered twice daily for 3 weeks; assay type: organism-based; settings: in vivo, 504 h
# [3] = MRT in male Sprague-Dawley rat at 25 nmol/kg, sc administered as single dose and measured after 24 hrs by LC-MS/MS analysis; assay type: ADME, organism-based; settings: in vivo
smiles,measurement,setting,value
CCCCCCCCCCCCCCCC(=O)N[C@@H](CCC(=O)NCCCC[C@H](NC(=O)[C@H](C)NC(=O)[C@H](C)NC(=O)[C@H](CCC(N)=O)NC(=O)CNC(=O)[C@H](CCC(=O)O)NC(=O)[C@H](CC(C)C)NC(=O)[C@H](Cc1ccc(O)cc1)NC(=O)[C@H](CO)NC(=O)[C@H](CO)NC(=O)[C@@H](NC(=O)[C@H](CC(=O)O)NC(=O)[C@H](CO)NC(=O)[C@@H](NC(=O)[C@H](Cc1ccccc1)NC(=O)[C@@H](NC(=O)CNC(=O)[C@H](CCC(=O)O)NC(=O)[C@H](C)NC(=O)[C@@H](N)Cc1cnc[nH]1)[C@@H](C)O)[C@@H](C)O)C(C)C)C(=O)N[C@@H](CCC(=O)O)C(=O)N[C@@H](Cc1ccccc1)C(=O)N[C@H](C(=O)N[C@@H](C)C(=O)N[C@@H](Cc1c[nH]c2ccccc12)C(=O)N[C@@H](CC(C)C)C(=O)N[C@H](C(=O)N[C@@H](CCCNC(=N)N)C(=O)NCC(=O)N[C@@H](CCCNC(=N)N)C(=O)NCC(=O)O)C(C)C)[C@@H](C)CC)C(=O)O,AUC at 24 h,[1],3410 ng·h/mL
same,Activity,[2],Toxic
same,MRT,[3],6.6 h
